Experiment [1] relates to Bacillus subtilis. Put plainly: Antimicrobial activity against Bacillus subtilis ATCC 19659 at 150 ug/disk. In kind it is functional, organism-based.
Experiment [2] deals with P388. As to the kind of experiment: Cytotoxicity against mouse P388 cells. Type of experiment: functional, cell-based.
In experiment [3] the test system is P388. Put plainly: Cytotoxicity against mouse P388 cells at 0.06 ug/mL. Type of experiment: functional.
The test system of experiment [4] is Bacillus subtilis. As to the kind of experiment: Antimicrobial activity against Bacillus subtilis ATCC 19659 at 30 ug/disk. In kind it is functional. As to conditions: read-out: IZ.

The record followed here is ChEMBL document CHEMBL1151186, “Ether-linked biflavonoids from Quintinia acutifolia” (J Nat Prod, 2004).

Values after ≈ are worked out from the molar mass of the structure shown. Active and inactive are the calls of the source. The calls are words filed in the database; no cut-off is given here.

The term IC50 denotes the concentration at which inhibition is half-maximal. Higher therefore signals weaker potency in that assay. Take `O=C1CC(c2ccc(Oc3cc(-c4cc(=O)c5c(O)cc(O)cc5o4)ccc3O)cc2)Oc2cc(O)cc(O)c21` (centres undefined): in the experiment on Bacillus subtilis [1], the result was inactive. The compound further had an IC50 with P388 [2] of 3.1 µg/mL (≈ 5.74 µM).

In turn, `CO[C@@]12[C@H](COC(N)=O)C3=C(C(=O)C(C)=C(N)C3=O)N1C[C@@H]1N[C@@H]12` [MITOMYCIN] yielded an Activity with P388 [3] of 43%. For the compound `COc1cc(O)c2c(c1)OC(c1ccc(O)c(Oc3ccc(C4CC(=O)c5c(O)cc(O)cc5O4)cc3)c1)CC2=O` (centres undefined), the result with Bacillus subtilis [1] was inactive. `COc1cc(O)c2c(c1)OC(c1ccc(Oc3cc(C4CC(=O)c5c(O)cc(OC)cc5O4)ccc3O)cc1)CC2=O` (centres undefined): the outcome in the experiment with Bacillus subtilis [1] was inactive. The compound further displayed an IC50 in the experiment on P388 [2] of 8.7 µg/mL (≈ 15.2 µM). On to `O=C(N[C@H](CO)[C@H](O)c1ccc([N+](=O)[O-])cc1)C(Cl)Cl` [CHLORAMPHENICOL], for which the zone of inhibition at 30 µg/disc in the experiment with Bacillus subtilis [4] stood at 12 mm. Take `O=C1CC(c2ccc(Oc3cc(C4CC(=O)c5c(O)cc(O)cc5O4)ccc3O)cc2)Oc2cc(O)cc(O)c21` (centres undefined): the result in the experiment with Bacillus subtilis [1] was inactive. The IC50 in the experiment with P388 [2] turned out to be 8.2 µg/mL (≈ 15.1 µM).
